pEC50: −log10 of the molar value. Like-named read-outs stand apart in the source and are kept apart here.
Tests used:
[1] = target: dipeptidyl peptidase IV (DPP IV) (Homo sapiens, UniProt P27487); test: Specificity of activation: 24 h digestion with DPP IV; format: biochemical; conditions: 100 μM prodrug, 37° C.
Protocol: (§1) Total doxorubicin was measured for each assay.

[2] = target: T1, PREP (Homo sapiens, UniProt P48147); test: Specificity of activation: 24 h digestion with PREP; format: biochemical; conditions: 100 μM prodrug, 37° C.
T1 sequence (P48147 1-710): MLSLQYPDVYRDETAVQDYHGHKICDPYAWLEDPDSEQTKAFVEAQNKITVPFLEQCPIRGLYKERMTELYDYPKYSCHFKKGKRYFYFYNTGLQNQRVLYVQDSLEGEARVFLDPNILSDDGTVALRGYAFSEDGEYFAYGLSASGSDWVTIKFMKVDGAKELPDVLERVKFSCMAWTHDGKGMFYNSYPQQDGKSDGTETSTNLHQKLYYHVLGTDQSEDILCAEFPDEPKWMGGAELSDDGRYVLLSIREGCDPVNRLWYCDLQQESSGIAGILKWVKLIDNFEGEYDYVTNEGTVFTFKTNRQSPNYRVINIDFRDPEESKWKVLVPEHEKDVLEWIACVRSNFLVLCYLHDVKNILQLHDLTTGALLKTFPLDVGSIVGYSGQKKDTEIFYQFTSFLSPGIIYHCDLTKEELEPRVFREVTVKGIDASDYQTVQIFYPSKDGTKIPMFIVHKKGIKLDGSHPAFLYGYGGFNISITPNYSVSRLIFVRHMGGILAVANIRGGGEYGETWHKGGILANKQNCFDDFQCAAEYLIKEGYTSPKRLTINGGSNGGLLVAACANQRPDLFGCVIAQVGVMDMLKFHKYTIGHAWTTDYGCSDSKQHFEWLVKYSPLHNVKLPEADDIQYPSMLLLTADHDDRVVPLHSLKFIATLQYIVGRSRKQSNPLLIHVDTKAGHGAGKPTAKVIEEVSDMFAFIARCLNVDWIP
Protocol: as §1

[3] = tested on: HEK-mFAP cells; test: CellTiter-Blue cell viability assay with HEK-mFAP cells; format: cell-based, Human; conditions: for activation by FAP expressed by HEK-mFAP cells / effect of addition of the FAP inhibitor 5057 on activation: FIG. 15A, 15B
[4] = tested on: HEK-Mock cells; test: CellTiter-Blue cell viability assay with HEK-Mock cells; format: cell-based; conditions: Homo sapiens
[5] = tested on: SK-OV-3; test: CellTiter-Blue cell viability assay, SK-OV-3; format: cell-based; conditions: 5061DOX assay 2, SK-OV-3, 72 hour
[6] = tested on: MCF-7; test: CellTiter-Blue cell viability assay, MCF-7; format: cell-based; conditions: 5061DOX assay 2, MCF-7, 72 hour
[7] = tested on: OVCAR-3; test: CellTiter-Blue cell viability assay, OVCAR-3; format: cell-based; conditions: 5061DOX assay 2, OVCAR-3, 72 hour
[8] = Homo sapiens, 72 h, MK-2206 / Akt inhibitor prodrugs, HEK-mFAP cells, 72 hour incubation, read-out: EC50 (prodrug alone)
[9] = Homo sapiens, read-out: EC50 (prodrug + 100 uM 5057)
[10] = Homo sapiens, read-out: EC50 (prodrug alone)
[11] = read-out: EC50 (doxorubicin alone)

dipeptidyl peptidase IV (DPP IV), sequence (P27487 whole entry, species assumed): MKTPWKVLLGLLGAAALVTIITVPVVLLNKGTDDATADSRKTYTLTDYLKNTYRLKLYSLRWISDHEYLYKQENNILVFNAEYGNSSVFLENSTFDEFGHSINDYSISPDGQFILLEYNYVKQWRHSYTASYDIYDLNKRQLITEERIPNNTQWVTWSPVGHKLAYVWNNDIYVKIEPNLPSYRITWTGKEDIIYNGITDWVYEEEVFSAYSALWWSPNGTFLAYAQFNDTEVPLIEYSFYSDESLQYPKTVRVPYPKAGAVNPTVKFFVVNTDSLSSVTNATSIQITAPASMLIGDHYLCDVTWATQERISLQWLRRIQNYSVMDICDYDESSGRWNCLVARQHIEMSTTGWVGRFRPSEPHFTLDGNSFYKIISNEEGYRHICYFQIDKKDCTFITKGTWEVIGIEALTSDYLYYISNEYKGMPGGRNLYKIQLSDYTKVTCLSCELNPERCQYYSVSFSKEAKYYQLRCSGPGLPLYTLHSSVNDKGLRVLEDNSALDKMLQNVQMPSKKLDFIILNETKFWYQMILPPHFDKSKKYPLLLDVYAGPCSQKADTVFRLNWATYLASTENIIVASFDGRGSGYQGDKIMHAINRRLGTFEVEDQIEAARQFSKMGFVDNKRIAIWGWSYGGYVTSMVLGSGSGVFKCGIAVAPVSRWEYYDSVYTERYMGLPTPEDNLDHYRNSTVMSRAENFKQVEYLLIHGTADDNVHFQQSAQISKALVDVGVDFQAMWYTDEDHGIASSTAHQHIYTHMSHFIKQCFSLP

`COc1cccc2c1C(=O)c1c(O)c3c(c(O)c1C2=O)C[C@@](O)(C(=O)CO)C[C@@H]3OC1CC(NC(=O)[C@@H]2CCCN2C(=O)[C@@H](C)NC(=O)[C@H](CO)NC(=O)CCC(=O)O)C(O)C(C)O1` (stereo partly drawn) [Compound 3996DOX] was tested. Which “doxorubicin released by DPP IV” value [1] did it give?
Its value is “essentially none by PREP or DPP IV”.

What about the “doxorubicin released by PREP” value [2] of the same compound?
The value was “essentially none by PREP or DPP IV”.

With `NC1(c2ccc(-c3nc4ccn5c(=O)[nH]nc5c4cc3-c3ccccc3)cc2)CCC1` [MK-2206, reference compound] as the compound, how does the pEC50 ([3]; Homo sapiens, 5157 assay, HEK-mFAP, read-out: EC50 (MK-2206 alone)) read?
The pEC50 was 5.28.

And the pEC50 ([3]; Homo sapiens, 72 h, HEK-mFAP cells, 72 hrs, read-out: EC50 (MK-2206))?
Its pEC50 is 5.04.

What about the pEC50 ([4]; 5157 assay, HEK-Mock, read-out: EC50 (MK-2206 alone)) of the same compound?
The pEC50 was 5.17.

How did the pEC50 [3, 8] turn out when `CCn1c(-c2nonc2N)nc2c(C#CC(C)(C)O)ncc(OC[C@H]3CCCN(C(=O)[C@@H]4CC(F)(F)CN4C(=O)CNC(=O)c4ccnc5ccccc45)C3)c21` [Compound 5188] was run?
The pEC50 was under 4.60.

`O=C(NC1(c2ccc(-c3nc4ccn5c(=O)[nH]nc5c4cc3-c3ccccc3)cc2)CCC1)OCc1ccc(NC(=O)[C@@H]2CC(F)(F)CN2C(=O)CNC(=O)c2ccnc3ccccc23)cc1` [Compound 5173] was tested. Which “activation by FAP expressed by HEK-mFAP cells” value [3] did it give?
Its value is “appears to be activated by the FAP expressed by the HEK-mFAP cells”.

And the “effect of addition of the FAP inhibitor 5057 on activation” value [3]?
Its value is “blocks this activation”.

What about the pEC50 [3, 8] of the same compound?
Its pEC50 is under 5.60.

`COc1cccc2c1C(=O)c1c(O)c3c(c(O)c1C2=O)C[C@@](O)(C(=O)CO)C[C@@H]3OC1CC(NC(=O)[C@@H]2CCCN2C(=O)[C@@H](C)NC(=O)c2ccnc3cccc(Br)c23)C(O)C(C)O1` (stereo partly drawn) [Compound 5061DOX] was tested. Which pEC50 ([5]; Homo sapiens, read-out: EC50 (prodrug + 25 nM FAP)) did it give?
The pEC50 was 6.05.

And the pEC50 [5, 9]?
The pEC50 was under 4.00.

What about the pEC50 [5, 10] of the same compound?
The pEC50 was under 4.00.

What about the pEC50 ([6]; Homo sapiens, MCF7, read-out: EC50 (prodrug + 25 nM FAP)) of the same compound?
Its pEC50 is under 4.00.

What about the pEC50 ([6]; Homo sapiens, MCF7, read-out: EC50 (prodrug + 100 uM 5057)) of the same compound?
Its pEC50 is under 4.00.

And the pEC50 ([6]; Homo sapiens, MCF7, read-out: EC50 (prodrug alone))?
Its pEC50 is under 4.00.

What about the pEC50 ([3]; 5061DOX assay 1, HEK-mFAP, 72 hour, read-out: EC50 (prodrug alone)) of the same compound?
The pEC50 was under 4.00.

And the pEC50 ([3]; 5061DOX assay 2, HEK-mFAP, 72 hour, read-out: EC50 (prodrug + 100 uM 5057))?
The pEC50 was under 4.00.

What about the pEC50 ([3]; Homo sapiens, 5061DOX assay 1, HEK-mFAP, 72 hour, read-out: EC50 (prodrug + 100 uM 5057)) of the same compound?
Its pEC50 is under 4.00.

And the pEC50 ([3]; Homo sapiens, 5061DOX assay 2, HEK-mFAP, 72 hour, read-out: EC50 (prodrug alone))?
Its pEC50 is under 4.00.

And the pEC50 ([4]; 72 h, 5061DOX assay 1, HEK-Mock, 72 hour, read-out: EC50 (prodrug + 25 nM FAP))?
Its pEC50 is 6.55.

What about the pEC50 ([4]; 72 h, 5061DOX assay 1, HEK-Mock, 72 hour, read-out: EC50 (prodrug + 50 nM PREP)) of the same compound?
Its pEC50 is under 4.00.

And the pEC50 ([4]; 72 h, 5061DOX assay 1, HEK-Mock, 72 hour, read-out: EC50 (prodrug + 100 uM 5057))?
The pEC50 was under 4.00.

And the pEC50 ([4]; 72 h, 5061DOX assay 1, HEK-Mock, 72 hour, read-out: EC50 (prodrug alone))?
Its pEC50 is under 4.00.

What about the pEC50 ([4]; 72 h, 5061DOX assay 2, HEK-Mock, 72 hour, read-out: EC50 (prodrug + 25 nM FAP)) of the same compound?
The pEC50 was 6.60.

What about the pEC50 ([4]; 72 h, 5061DOX assay 2, HEK-Mock, 72 hour, read-out: EC50 (prodrug alone)) of the same compound?
The pEC50 was under 4.00.

And the pEC50 [7, 9]?
Its pEC50 is under 4.00.

And the pEC50 ([7]; Homo sapiens, read-out: EC50 (prodrug = 25 nM FAP))?
Its pEC50 is 5.82.

And the pEC50 [7, 10]?
Its pEC50 is under 4.00.

With `C[C@@H](NC(=O)c1ccnc2ccccc12)C(=O)N1CC(F)(F)C[C@H]1C(=O)Nc1ccc(COC(=O)NC2(c3ccc(-c4nc5ccn6c(=O)[nH]nc6c5cc4-c4ccccc4)cc3)CCC2)cc1` [Compound 5174] as the compound, how does the “activation by FAP expressed by HEK-mFAP cells” value [3] read?
The value was “appears to be activated by the FAP expressed by the HEK-mFAP cells”.

And the “effect of addition of the FAP inhibitor 5057 on activation” value [3]?
Its value is “blocks this activation”.

And the pEC50 [3, 8]?
The pEC50 was 5.34.

With `NCC(=O)NNc1ccc(C(=O)NCC(=O)N2CC(F)(F)C[C@H]2C(=O)Nc2ccc(COC(=O)NC3(c4ccc(-c5nc6ccn7c(=O)[nH]nc7c6cc5-c5ccccc5)cc4)CCC3)cc2)cn1` [Compound 5193] as the compound, how does the pEC50 [3, 8] read?
Its pEC50 is 5.59.

With `CCn1c(-c2nonc2N)nc2c(C#CC(C)(C)O)ncc(OC[C@H]3CCCNC3)c21` [GSK690693, reference compound] as the compound, how does the pEC50 ([3]; Homo sapiens, 72 h, HEK-mFAP cells, 72 hour, read-out: EC50 (GSK690693)) read?
Its pEC50 is 4.82.

`NNc1ccc(C(=O)NCC(=O)N2CC(F)(F)C[C@H]2C(=O)Nc2ccc(COC(=O)NC3(c4ccc(-c5nc6ccn7c(=O)[nH]nc7c6cc5-c5ccccc5)cc4)CCC3)cc2)cn1` [Compound 5192] was tested. Which pEC50 [3, 8] did it give?
Its pEC50 is under 5.52.

What does the source list for `O=C(NC1(C(=O)N[C@@H](CCO)c2ccc(Cl)cc2)CCN(c2ncnc3[nH]ccc23)CC1)OCc1ccc(NC(=O)[C@@H]2CC(F)(F)CN2C(=O)CNC(=O)c2ccnc3ccccc23)cc1` [Compound 5189]?
pEC50 ([3]; Homo sapiens, 72 h, Akt inhibitor prodrugs, HEK-mFAP cells, 72 hour, read-out: EC50 (prodrug + 100 uM 5057-2)): 5.24; pEC50 [3, 8]: 5.52

`Cn1ncc(Cl)c1-c1cc(C(=O)N[C@H](CN)Cc2cccc(F)c2)sc1Cl` [GSK2 110183, reference compound] was tested. Which pEC50 ([3]; HEK-mFAP cells, 72 hrs, read-out: EC50 (GSK2 110183)) did it give?
Its pEC50 is 6.31.

With `Cn1ncc(Cl)c1-c1cc(C(=O)N[C@H](CNC(=O)[C@@H]2CC(F)(F)CN2C(=O)CNC(=O)c2ccnc3ccccc23)Cc2cccc(F)c2)sc1Cl` [Compound 5184] as the compound, how does the pEC50 ([3]; Homo sapiens, 72 h, Akt inhibitor prodrugs, HEK-mFAP cells, 72 hrs, read-out: EC50 (prodrug alone)) read?
Its pEC50 is 6.03.

`C[C@@H](NC(=O)c1ccncc1)C(=O)N1CCC[C@H]1C(=O)Nc1ccc(COC(=O)NC2(c3ccc(-c4nc5ccn6c(=O)[nH]nc6c5cc4-c4ccccc4)cc3)CCC2)cc1` [Compound 5157] was tested. Which pEC50 ([3]; Homo sapiens, 5157 assay, HEK-mFAP, read-out: EC50 (prodrug + 100 uM 3099-15)) did it give?
Its pEC50 is under 5.60.

And the pEC50 ([3]; Homo sapiens, 5157 assay, HEK-mFAP, read-out: EC50 (prodrug alone))?
Its pEC50 is 5.54.

What about the pEC50 ([4]; 5157 assay, HEK-Mock, read-out: EC50 (prodrug + 100 uM 3099-15)) of the same compound?
Its pEC50 is under 5.60.

What about the pEC50 ([4]; 5157 assay, HEK-Mock, read-out: EC50 (prodrug alone)) of the same compound?
The pEC50 was under 5.60.

How did the pEC50 ([3]; HEK-mFAP cells, 72 hour, read-out: EC50 (AZD5363)) turn out when AZD5363 [reference compound] was run?
Its pEC50 is 5.60.

With `COc1cccc2c1C(=O)c1c(O)c3c(c(O)c1C2=O)C[C@@](O)(C(=O)CO)C[C@@H]3OC1CC(NC(=O)[C@@H]2CC(F)(F)CN2C(=O)[C@@H](C)NC(=O)c2ccnc3ccccc23)C(O)C(C)O1` (stereo partly drawn) [Compound 5107DOX] as the compound, how does the pEC50 ([3]; Homo sapiens, 5107DOX assay, HEK-mFAP, 72 hour, read-out: EC50 (prodrug + 100 uM 5057-2)) read?
Its pEC50 is under 4.00.

And the pEC50 ([3]; Homo sapiens, 5107DOX assay, HEK-mFAP, 72 hour, read-out: EC50 (prodrug alone))?
Its pEC50 is 6.03.

With `COc1cccc2c1C(=O)c1c(O)c3c(c(O)c1C2=O)C[C@@](O)(C(=O)CO)C[C@@H]3O[C@H]1C[C@H](N)[C@H](O)[C@H](C)O1` [doxorubicin, reference compound] as the compound, how does the pEC50 [5, 11] read?
Its pEC50 is 6.36.

What about the pEC50 [6, 11] of the same compound?
The pEC50 was 4.27.

And the pEC50 [7, 11]?
The pEC50 was 5.77.

From patent US12121505B2, “Fap-activated therapeutic agents, and uses related thereto” (BACH BIOSCIENCES, LLC, priority 2014, dated 2024)
